Test results reported in ChEMBL document CHEMBL1201862, “PubChem BioAssay data set” (2004).
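Growth conditions: 96-well plates. Treatment: test compound, 48 hours, 5 concentrations. Analysis: linear interpolation between bracketing concentrations; unreached endpoints set to highest concentration. GI50: concentration for 50% inhibition of growth.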 Activity calls are given as the source filed them. No stated cut-off is given here; in the data, active = GI50 up to about 1.1 µM and inactive = higher.

How the values were obtained:
Test in all cases: NCI-60 cell line screen, 48 h
TK-10 = test system: TK-10
LOX IMVI = test system: LOX IMVI
MOLT-4 = test system: MOLT-4
UO-31 = test system: UO-31
Malme-3M = test system: Malme-3M
MDA-MB-231 = test system: MDA-MB-231
OVCAR-8 = test system: OVCAR-8
SNB-19 = test system: SNB-19
Hs-578T = test system: Hs-578T
K562 = test system: K562
HT-29 = test system: HT-29
NCI-H460 = test system: NCI-H460
SK-MEL-5 = test system: SK-MEL-5
CCRF-CEM = test system: CCRF-CEM
NCI-H522 = test system: NCI-H522
BT-549 = test system: BT-549
PC-3 = test system: PC-3
HOP-62 = test system: HOP-62
SN12C = test system: SN12C
A549 = test system: A549
SF-295 = test system: SF-295
MCF7 = test system: MCF7
SK-OV-3 = test system: SK-OV-3
A498 = test system: A498
SF-539 = test system: SF-539
COLO 205 = test system: COLO 205
HOP-92 = test system: HOP-92
M14 = test system: M14
UACC-62 = test system: UACC-62
HL-60 = test system: HL-60
NCI-H23 = test system: NCI-H23
SK-MEL-28 = test system: SK-MEL-28
OVCAR-4 = test system: OVCAR-4
SW-620 = test system: SW-620
MDA-N = test system: MDA-N
RPMI-8226 = test system: RPMI-8226
786-0 = test system: 786-0
T47D = test system: T47D
DU-145 = test system: DU-145
SK-MEL-2 = test system: SK-MEL-2
MDA-MB-435 = test system: MDA-MB-435
NCI/ADR-RES = test system: NCI/ADR-RES
CAKI-1 = test system: CAKI-1
HCT-15 = test system: HCT-15
KM12 = test system: KM12
SNB-75 = test system: SNB-75
OVCAR-5 = test system: OVCAR-5
IGROV-1 = test system: IGROV-1
EKVX = test system: EKVX
HCT-116 = test system: HCT-116
ACHN = test system: ACHN
SR = test system: SR
OVCAR-3 = test system: OVCAR-3
RXF 393 = test system: RXF 393
SF-268 = test system: SF-268
UACC-257 = test system: UACC-257
U-251 = test system: U-251
NCI-H226 = test system: NCI-H226
HCC 2998 = test system: HCC 2998

Measured: GI50

NCCc1nc(-c2nc(C(=O)O)cs2)cs1
> 100 µM: HCT-15
inactive: TK-10 > 100 µM | LOX IMVI > 100 µM | MOLT-4 > 100 µM | UO-31 > 100 µM | Malme-3M > 100 µM | MDA-MB-231 > 100 µM | OVCAR-8 > 100 µM | SNB-19 > 100 µM | Hs-578T > 100 µM | K562 > 100 µM | HT-29 > 100 µM | NCI-H460 > 100 µM | SK-MEL-5 > 100 µM | CCRF-CEM > 100 µM | NCI-H522 > 100 µM | BT-549 > 100 µM | PC-3 > 100 µM | HOP-62 > 100 µM | SN12C > 100 µM | A549 > 100 µM | SF-295 > 100 µM | MCF7 > 100 µM | SK-OV-3 > 100 µM | A498 > 100 µM | SF-539 > 100 µM | COLO 205 > 100 µM | HOP-92 > 100 µM | M14 > 100 µM | UACC-62 > 100 µM | HL-60 > 100 µM | NCI-H23 > 100 µM | SK-MEL-28 > 100 µM | OVCAR-4 > 100 µM | SW-620 > 100 µM | MDA-N > 100 µM | RPMI-8226 > 100 µM | 786-0 > 100 µM | T47D > 100 µM | DU-145 > 100 µM | SK-MEL-2 > 100 µM | MDA-MB-435 > 100 µM | NCI/ADR-RES > 100 µM | CAKI-1 > 100 µM | KM12 > 100 µM | SNB-75 > 100 µM | OVCAR-5 > 100 µM | IGROV-1 > 100 µM | EKVX > 100 µM | HCT-116 > 100 µM | ACHN > 100 µM | SR > 100 µM | OVCAR-3 > 100 µM | RXF 393 > 100 µM | SF-268 > 100 µM | UACC-257 > 100 µM | U-251 > 100 µM

CC(=O)c1cc(I)c(O)c2ncccc12
inactive: TK-10 9.46 µM | LOX IMVI 3.85 µM | MOLT-4 2.42 µM | Malme-3M 3.45 µM | MDA-MB-231 2.55 µM | OVCAR-8 2.92 µM | SNB-19 5.47 µM | Hs-578T > 10 µM | K562 7.55 µM | HT-29 4.42 µM | NCI-H460 4.06 µM | SK-MEL-5 2.29 µM | CCRF-CEM 2.07 µM | NCI-H522 3.6 µM | BT-549 5.07 µM | PC-3 5.71 µM | HOP-62 4.36 µM | SN12C 3.69 µM | A549 4.34 µM | SF-295 4.07 µM | MCF7 4.73 µM | SK-OV-3 4.27 µM | A498 2.85 µM | SF-539 3.05 µM | NCI-H226 2.33 µM | COLO 205 3.11 µM | HOP-92 2.07 µM | M14 1.97 µM | UACC-62 3.3 µM | HL-60 2.03 µM | NCI-H23 3.13 µM | SK-MEL-28 4.09 µM | HCC 2998 8.17 µM | OVCAR-4 2.94 µM | SW-620 4.17 µM | MDA-N 5.02 µM | RPMI-8226 2.67 µM | 786-0 3.03 µM | T47D 5.74 µM | DU-145 3.3 µM | SK-MEL-2 6.35 µM | MDA-MB-435 4.09 µM | NCI/ADR-RES 4.35 µM | CAKI-1 3.08 µM | KM12 > 10 µM | OVCAR-5 > 10 µM | IGROV-1 2.94 µM | EKVX 6.49 µM | HCT-116 2.94 µM | ACHN 2.43 µM | SR 2.91 µM | OVCAR-3 3.21 µM | RXF 393 3.92 µM | SF-268 3.22 µM | UACC-257 2.66 µM | U-251 3.97 µM
5.13 µM: HCT-15

O=c1c2sc3ccccc3sc=2c(=O)c2c(Cl)c(Cl)c(Cl)c(Cl)c12
39.7 µM: HCT-15
inactive: TK-10 > 100 µM | MOLT-4 > 100 µM | UO-31 > 100 µM | Malme-3M > 100 µM | MDA-MB-231 > 100 µM | OVCAR-8 > 100 µM | SNB-19 > 100 µM | Hs-578T 38.4 µM | K562 34.8 µM | HT-29 > 100 µM | NCI-H460 > 100 µM | SK-MEL-5 > 100 µM | CCRF-CEM > 100 µM | NCI-H522 > 100 µM | BT-549 > 100 µM | PC-3 > 100 µM | HOP-62 > 100 µM | SN12C > 100 µM | A549 > 100 µM | SF-295 > 100 µM | MCF7 > 100 µM | SK-OV-3 > 100 µM | A498 > 100 µM | NCI-H226 > 100 µM | COLO 205 > 100 µM | M14 > 100 µM | UACC-62 > 100 µM | NCI-H23 > 100 µM | SK-MEL-28 > 100 µM | HCC 2998 96.2 µM | OVCAR-4 > 100 µM | SW-620 > 100 µM | MDA-N > 100 µM | RPMI-8226 42 µM | 786-0 > 100 µM | T47D > 100 µM | DU-145 > 100 µM | SK-MEL-2 > 100 µM | MDA-MB-435 > 100 µM | NCI/ADR-RES > 100 µM | CAKI-1 > 100 µM | KM12 > 100 µM | SNB-75 > 100 µM | OVCAR-5 > 100 µM | IGROV-1 > 100 µM | EKVX > 100 µM | HCT-116 > 100 µM | ACHN > 100 µM | SR > 100 µM | OVCAR-3 > 100 µM | RXF 393 > 100 µM | SF-268 > 100 µM | UACC-257 > 100 µM | U-251 > 100 µM

CCOC(=O)C1(C(=O)OCC)[C@H](c2ccccc2)C2=NO[C@@H]3CCC[C@H]1[C@H]23
inactive: TK-10 63.2 µM | LOX IMVI > 100 µM | MOLT-4 15.4 µM | UO-31 57.4 µM | Malme-3M > 100 µM | MDA-MB-231 75.7 µM | OVCAR-8 75.3 µM | SNB-19 > 100 µM | Hs-578T > 100 µM | K562 21.3 µM | HT-29 35.8 µM | NCI-H460 60.5 µM | SK-MEL-5 31.3 µM | CCRF-CEM 35.2 µM | NCI-H522 42.9 µM | BT-549 44.8 µM | PC-3 49.3 µM | HOP-62 20.5 µM | SN12C > 100 µM | A549 55.6 µM | SF-295 33.4 µM | MCF7 41.4 µM | SK-OV-3 30.1 µM | SF-539 > 100 µM | NCI-H226 32.9 µM | COLO 205 33 µM | HOP-92 54 µM | M14 36 µM | UACC-62 15.2 µM | HL-60 33.8 µM | NCI-H23 57.1 µM | SK-MEL-28 > 100 µM | HCC 2998 22.1 µM | OVCAR-4 37.9 µM | SW-620 58.1 µM | MDA-N 31.2 µM | RPMI-8226 14.6 µM | 786-0 82.2 µM | T47D 26.5 µM | DU-145 > 100 µM | SK-MEL-2 40.9 µM | MDA-MB-435 21.4 µM | NCI/ADR-RES 39.4 µM | CAKI-1 48.3 µM | KM12 34.8 µM | SNB-75 30.1 µM | OVCAR-5 65.6 µM | IGROV-1 56.8 µM | EKVX 27.9 µM | HCT-116 54.1 µM | ACHN 84.3 µM | SR 30.8 µM | OVCAR-3 25.1 µM | RXF 393 52.1 µM | SF-268 > 100 µM | UACC-257 31.6 µM | U-251 49.9 µM
43.6 µM: HCT-15

CCCCN1C(=O)C2Cc3c([nH]c4ccccc34)C(c3cccc(O)c3)N2C1=O (centres undefined)
18.7 µM: HCT-15
inactive: TK-10 18.3 µM | LOX IMVI 18 µM | MOLT-4 26.7 µM | UO-31 17.5 µM | MDA-MB-231 15.5 µM | OVCAR-8 18.9 µM | SNB-19 19.1 µM | Hs-578T 27.9 µM | K562 20.2 µM | HT-29 20.9 µM | NCI-H460 20 µM | SK-MEL-5 17 µM | CCRF-CEM 18.2 µM | NCI-H522 20 µM | BT-549 19 µM | PC-3 18.5 µM | HOP-62 18.5 µM | SN12C 17.9 µM | A549 18.4 µM | SF-295 17.4 µM | MCF7 18.3 µM | SK-OV-3 16.1 µM | A498 18.5 µM | SF-539 18.8 µM | NCI-H226 21.5 µM | COLO 205 19.6 µM | HOP-92 19.2 µM | M14 18.3 µM | UACC-62 17.7 µM | HL-60 22.8 µM | NCI-H23 20.3 µM | SK-MEL-28 19 µM | HCC 2998 18.9 µM | OVCAR-4 18.7 µM | SW-620 19.9 µM | MDA-N 19.2 µM | RPMI-8226 23.1 µM | 786-0 18.9 µM | T47D 24.4 µM | DU-145 18.6 µM | SK-MEL-2 18 µM | MDA-MB-435 17.3 µM | NCI/ADR-RES 18.5 µM | CAKI-1 18.7 µM | KM12 19.4 µM | SNB-75 18.5 µM | OVCAR-5 18.8 µM | IGROV-1 17.5 µM | EKVX 17.9 µM | HCT-116 18.7 µM | ACHN 19.8 µM | SR 20.5 µM | OVCAR-3 16.3 µM | SF-268 19.1 µM | UACC-257 18.7 µM | U-251 19 µM
